Data on 2 compounds can be found in publication PMC10954696, “Development of a novel AAK1 inhibitor via Kinobeads-based screening” (Scientific Reports, 2024).

“Also recorded” adds a separate entry of the source.

The target of assay [1] is T1, His-tagged AAK1 catalytic domain (25–396) (Homo sapiens, UniProt Q2M2I8).
T1 construct: Purified His-AAK1 25–396 (200 ng); His10 (N); made in house; host or cells: COS-7 cells
Description: AAK1 activity assay: phosphorylation of GST-AP2µ2 (145–162) by His-AAK1 25–396 with [γ-32P]ATP. The assay is classed as biochemical. Particulars: for IC50: His-AAK1 25–396, GST-AP2µ2 (145–162), 100 µM [γ-32P]ATP, 30 °C, 20 min, read-out: IC50 against AAK1 activity. How it is done:
AAK1 phosphorylates AP2µ2 at Thr156; therefore, we set up an AAK1 activity assay using GST-fused AP2µ2 fragment (residues 145–162) as a substrate and anti-phospho-Thr156 antibody for detection of the substrate phosphorylation by AAK1.
(§1) Purified His-AAK1 25–396 (200 ng), His-GAK 2–370 (33 ng), His-BIKE 2–396 (87 ng), and His-STK16 2–306 (95 ng) were incubated with 10 µg GST-AP2µ2 (145–162)-His6 in a solution (20 µL) containing 50 mM HEPES pH7.5, 10 mM Mg(CH3COO)2, 1 mM DTT, and 0.1 mM [γ-^32P]ATP or ATP at 30 °C for the indicated time periods (His-GAK 2–370, 10 min; His-BIKE 2–396, 90 min; His-STK16 2–306, 20 min) in the presence or absence of various concentrations of inhibitors (5% DMSO). Then, 15 µL of the sample was spotted onto Whatman P81 paper and washed using 95% EtOH, followed by scintillation counting of the paper to measure the phosphate incorporation into GST-AP2µ2 (145–162)-His6. For immunoblot detection, reactions were terminated by the addition of an equal volume of 2 × SDS-PAGE buffer at various time points, followed by immunoblot analyses using an anti-phospho-AP2µ2 (AP2M1) at Thr156 antibody.

The target of assay [2] is T2, His-tagged AAK1 (Homo sapiens, UniProt Q2M2I8).
T2 construct: expressed in transfected cells; host or cells: COS-7 cells
Description: Pull-down of His-tagged AAK1 from COS-7 cell extracts with TIM-063–immobilized sepharose (TIM-127-sepharose). Format: binding. Particulars: COS-7 extracts, elution with 100 µM TIM-063. As for the experimental part: COS-7 cells transfected with expression plasmids for His-tagged AAK1 were lysed with buffer A containing protease inhibitors as described above, and then cell lysates (200 µL) were incubated with either TIM-127-coupled sepharose or control sepharose (10 µL) for 30 min. After washing the resin thrice with buffer A (500 µL), samples were eluted from the sepharose resin by incubation with 20 µL of 100 µM TIM-063 in buffer A as previously described, followed by immunoblot analysis.

Assay [3] concerns the target T3, CaMKKα/1 (Rattus norvegicus, UniProt P97756).
T3 construct: His6; made in house; host or cells: COS-7 cells
On the set-up: method as in PMID 32298102. Particulars: cited from earlier work.

Assay [4] addresses T4, CaMKKβ/2 (Rattus norvegicus, UniProt O88831).
T4 construct: His6; made in house; host or cells: COS-7 cells
On the set-up: method as in PMID 32298102. The settings on record: cited from earlier work.

Assay [5] deals with T3, CaMKKα/1. Description: CaMKK activity assay: phosphorylation of GST-CaMKIα 1–293KE. Format: biochemical. Particulars: up to 2.6 µM, immunoblot anti-phospho-CaMKIα (pThr177), 30 °C, 10 min, Fig. 4c. As for the experimental part: (§2) Purified His-CaMKKα/1 or His-CaMKKβ/2 (40 ng) was incubated with 10 µg GST-CaMKIα 1–293KE in a solution (20 µL) containing 50 mM HEPES pH7.5, 10 mM Mg (CH3COO)2, 1 mM DTT, 2 mM CaCl2, 6 µM CaM, and 0.1 mM [γ-^32P]ATP at 30 °C for a reaction time of 20 min in the presence or absence of compounds. Then, 15 µL of the sample was spotted onto Whatman P81 paper, followed by scintillation counting of the paper as described above to measure the phosphate incorporation into GST-CaMKIα 1–293KE. Reactions were terminated by the addition of an equal volume of 2 × SDS-PAGE for the immunoblot assay at 30 °C for 10 min using 2.5 ng of CaMKKs in the solution described above containing 0.1 mM ATP, followed by immunoblot analyses using anti-phospho-CaMKIα at the Thr177 antibody.
Background: In western blotting, separated proteins are transferred to a membrane and probed.

The target of assay [6] is T4, CaMKKβ/2. Described as above. Format: biochemical. Particulars: up to 2.6 µM, immunoblot anti-phospho-CaMKIα (pThr177), 30 °C, 10 min, Fig. 4c. As for the experimental part:
as §2

In assay [7] the target is T5, His-BIKE 2–396 (Mus musculus, UniProt Q91Z96).
T5 construct: His-BIKE 2–396 (87 ng); His6 (N); made in house; host or cells: COS-7 cells
The assay is described as follows: NAKs activity assay: phosphorylation of GST-AP2µ2 (145–162). The assay is classed as biochemical. Particulars: His-BIKE 2–396, 0.1 mM ATP, 30 °C, 90 min, duplicate experiments; read-out: IC50 against BIKE activity. How it is done: as §1
(§3) Supplemental Information S3
(§4) Effect of TIM-98a on NAKs’ activities. Purified His-GAK 2–370 (33 ng, closed triangles), His-BIKE 2–396 (87 ng, closed circles), and His-STK16 2–306 (95 ng, open circles) were incubated with 10 µg GST-AP2µ2 (145–162)-His6 in a solution (20 µL) containing 50 mM HEPES pH7.5, 10 mM Mg(CH3COO)2, 1 mM DTT, and 0.1 mM ATP at 30°C for the indicated time periods (His-GAK 2–370, 10 min; His-Bike 2–396, 90 min; His-STK16 2–306, 20 min) in the presence or absence (-) of various concentrations of TIM-098a. […] NAK’s activities are quantitated by densitometric scanning of the immunoreactive bands and expressed as a percentage of the average value in the absence of the compound (-). Results represent duplicate experiments. Molecular mass markers (kDa) are indicated in the left lanes of immunoblot panels.
(§5) (1 picture or pasted object on this page, not shown here)

Assay [8] concerns the target T6, His-GAK 2–370 (Mus musculus, UniProt Q99KY4).
T6 construct: His-GAK 2–370 (33 ng); His6 (N); made in house; host or cells: COS-7 cells
T6 sequence (Q99KY4 2-370): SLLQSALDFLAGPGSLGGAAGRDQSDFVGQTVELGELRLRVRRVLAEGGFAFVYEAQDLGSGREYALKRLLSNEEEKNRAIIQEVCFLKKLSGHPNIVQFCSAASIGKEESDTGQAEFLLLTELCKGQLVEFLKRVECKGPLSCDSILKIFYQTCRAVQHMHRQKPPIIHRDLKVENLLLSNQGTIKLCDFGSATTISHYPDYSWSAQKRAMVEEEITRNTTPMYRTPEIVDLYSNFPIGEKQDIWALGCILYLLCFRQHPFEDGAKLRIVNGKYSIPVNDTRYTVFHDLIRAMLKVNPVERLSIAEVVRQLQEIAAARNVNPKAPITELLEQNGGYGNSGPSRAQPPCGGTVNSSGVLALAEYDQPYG
The assay is described as above. The assay is classed as biochemical. Particulars: His-GAK 2–370, 0.1 mM ATP, 30 °C, 10 min, duplicate experiments; read-out: IC50 against GAK activity. How it is done: as §1, §3, §4, §5

In assay [9] the target is T7, His-STK16 2–306 (Mus musculus, UniProt O88697).
T7 construct: His-STK16 2–306 (95 ng); His6 (N); made in house; host or cells: COS-7 cells
Described as above. Format: biochemical. Particulars: His-STK16 2–306, 0.1 mM ATP, 30 °C, 20 min, duplicate experiments; read-out: IC50 against STK16 activity. As for the experimental part: as §1, §3, §4, §5

Assay [10] concerns the target T8, AAK1 catalytic domain (25–396) in transfected COS-7 cells (Homo sapiens, UniProt Q2M2I8).
T8 construct: transfected with 0.2 µg of pME-His-AAK1 25–396; expressed in transfected cells; host or cells: COS-7 cells
The assay is described as follows: AAK1 activity in transfected COS-7 cells (pThr156 of GST-AP2µ2 145–162, immunoblot). Format: cell-based. The settings on record: COS-7 cells expressing AAK1 25–396 and GST-AP2µ2 (145–162), 6 h treatment. How it is done:
To examine the effect of TIM-098a on AAK1 activity in cells, we set up an AAK1 activity assay in the cells as follows. Transfection of expression plasmids for the catalytic domain of AAK1(25–396) together with its artificial substrate (GST-AP2µ2 145–162) into COS-7 cells was followed by detection of phosphorylation of Thr156 via immunoblot analyses with anti-phospho-Thr156 antibody after 6 h-treatment with or without TIM-098a (Fig. 5). […] When we treated AAK1/GST-AP2µ2 (145–162) expressing COS-7 cells with various concentrations of TIM-098a, AAK1-catalyzed Thr156 phosphorylation of GST-AP2µ2 (145–162) was suppressed by TIM-098a treatment in a concentration-dependent manner (Fig. 5b), indicating the cell-membrane permeability and inhibitory effect of the inhibitor on AAK1 activity in the cells.
COS-7 cells and HeLa cells were obtained from American Type Culture Collection. COS-7 cells were cultured in 6-well plates or 10 cm dishes in Dulbecco’s modified Eagle’s medium supplemented with 10% fetal bovine serum at 37 °C in 5% CO2. COS-7 cells in 6-well plates were transfected with 0.2 µg of pME-His-AAK1 25–396 and 1.8 µg of pME-GST-AP2µ2 (145–162) expression plasmids using polyethylenimine “MAX” (Polysciences, Inc. Warrington, PA), according to the manufacturer’s protocol. […]

Assay [11] deals with HeLa cells overexpressing His-tagged AAK1 (1–863). The assay is described as follows: Early endosome formation (EEA1-positive vesicles), immunofluorescence microscopy. The assay is classed as cell-based, human. Particulars: 10 µM, 6 h, AAK1-transfected HeLa cells. As for the experimental part:
(§6) HeLa cells were cultured in 6-well plates containing Dulbecco’s modified Eagle’s medium supplemented with 10% fetal bovine serum at 37 °C in 5% CO2. The cells were transfected with 2 µg of an AAK1-expression plasmid (pME-His-AAK1 1–863) using polyethylenimine “MAX” according to the manufacturer’s protocol. After 42 h of culture, the cells were cultured with or without 10 µM TIM-098a for 6 h. HeLa cells grown on coverslips were fixed with 3.7% paraformaldehyde in PBS for 15 min and permeabilized with 0.1% Triton X-100 in PBS for 5 min at room temperature. Next, the cells were blocked with 4% bovine serum albumin (BSA) in PBS for 15 min and incubated with primary antibodies diluted in 4% BSA in PBS for 15 min. The cells were washed three times with PBS and incubated for 15 min with the appropriate secondary antibodies conjugated to Alexa fluorophores. After washing, the coverslips were mounted on microscope slides and viewed under an FV1000 confocal microscope (Olympus, Tokyo, Japan). Quantification of EEA1-positive vesicles was performed using ImageJ software. EEA1 fluorescence signals with areas greater than 430 nm^2 were counted as EEA1-positive vesicles using the particle analyzer function in ImageJ. To account for clustered EEA1 signals, the watershed segmentation method was applied in ImageJ before using the particle analyzer.

The subject of assay [12] is HeLa cells. Described as above. The assay is classed as cell-based, human. Particulars: 10 µM, 6 h, untransfected HeLa cells. How it is done:
as §6

T1 sequence (Q2M2I8 25-396): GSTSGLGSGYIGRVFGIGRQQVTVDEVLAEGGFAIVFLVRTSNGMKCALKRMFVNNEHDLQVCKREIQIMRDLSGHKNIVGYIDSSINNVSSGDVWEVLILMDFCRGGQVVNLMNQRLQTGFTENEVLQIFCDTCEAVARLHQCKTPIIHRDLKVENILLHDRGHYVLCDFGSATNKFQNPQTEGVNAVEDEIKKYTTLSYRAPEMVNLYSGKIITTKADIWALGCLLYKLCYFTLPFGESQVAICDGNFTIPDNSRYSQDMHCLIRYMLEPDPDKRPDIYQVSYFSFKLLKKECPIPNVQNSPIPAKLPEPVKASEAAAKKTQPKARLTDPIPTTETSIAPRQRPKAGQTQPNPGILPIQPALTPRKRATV
T7 sequence (O88697 2-305 limits assumed): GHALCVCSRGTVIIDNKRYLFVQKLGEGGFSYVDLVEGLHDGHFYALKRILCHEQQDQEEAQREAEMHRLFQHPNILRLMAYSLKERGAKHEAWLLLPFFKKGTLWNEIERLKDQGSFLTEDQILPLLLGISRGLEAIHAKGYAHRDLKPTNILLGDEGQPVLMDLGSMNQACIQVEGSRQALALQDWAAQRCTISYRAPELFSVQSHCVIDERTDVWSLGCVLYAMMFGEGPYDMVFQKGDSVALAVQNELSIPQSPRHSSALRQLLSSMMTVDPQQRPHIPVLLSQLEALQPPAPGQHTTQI
T8 sequence (Q2M2I8 25-396): as the sequence (Q2M2I8 25-396) above
T5 sequence (Q91Z96 2-396): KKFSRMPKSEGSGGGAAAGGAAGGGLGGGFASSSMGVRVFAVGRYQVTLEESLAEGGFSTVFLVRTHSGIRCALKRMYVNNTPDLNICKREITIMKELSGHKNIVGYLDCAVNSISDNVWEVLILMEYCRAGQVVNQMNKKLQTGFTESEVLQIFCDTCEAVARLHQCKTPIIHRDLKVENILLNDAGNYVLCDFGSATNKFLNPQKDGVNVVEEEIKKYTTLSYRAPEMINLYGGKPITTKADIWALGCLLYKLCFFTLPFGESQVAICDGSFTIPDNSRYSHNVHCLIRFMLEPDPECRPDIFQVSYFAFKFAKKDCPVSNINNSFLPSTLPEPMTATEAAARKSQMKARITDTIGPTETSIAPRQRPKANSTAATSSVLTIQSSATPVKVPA

For `O=c1c2cccc3c([N+](=O)[O-])c(O)cc(c32)c2nc3ccccc3n12` [TIM-063, 2-hydroxy-3-nitro-7H-benzo[de]benzo[4,5]imidazo[2,1-a]isoquinolin-7-one], in assay [1] (2.6 µM compound), the inhibition at 2.6 µM is around 20%. Moreover, in assay [1] (26 µM compound), the inhibition at 26 µM is around 80%. The IC50 in assay [1] was 8510 nM; in assay [3], 630 nM; in assay [4] it was 960 nM. Moreover, the “inhibitory effect on AAK1 relative to that on CaMKK” value in assay [1] (lower on AAK1 than on CaMKK) is given as “~ tenfold”. Also, the “interaction with AAK1 catalytic domain (His-AAK 25–396)” value in assay [2] is recorded as “strong interaction”. Moreover, the “interaction with His-tagged AAK1 full length (1–863)” value in [2] is “weak binding”.
With `Nc1ccc2c(c1)nc1c3cc(O)cc4cccc(c(=O)n21)c43` [TIM-098a, 11-amino-2-hydroxy-7H-benzo[de]benzo[4,5]imidazo[2,1-a]isoquinolin-7-one], the half-maximal inhibitory concentration (IC50) in assay [1] was 240 nM; in [7], 5990 nM; in [8], 1040 nM; in [9] it was 7150 nM; in assay [10], 870 nM. The “AAK1 inhibitory potency relative to TIM-063” value in assay [1] (higher potency than TIM-063) was ~ 35 fold. Further, the “selectivity for AAK1: higher inhibitory potency than for other NAKs” value in [1] (versus GAK, BIKE, STK16) was 4–30 fold. In assay [5], the “effect on CaMKKα/1 activity” value is on record as “without any significant inhibitory effects; also recorded: without any inhibitory activity”. For the same compound, in assay [6], the “effect on CaMKKβ/2 activity” value is “without any significant inhibitory effects; also recorded: without any inhibitory activity”. Further, the “number of early endosomes in AAK1-transfected cells” value in assay [11] is recorded as “recovered to the level of untransfected wild type cells”. The “early endosome formation in wild type cells” value in [12] is listed as “not affected”.

The inhibition is the relative decrease from the control value, in per cent. A lower inhibition goes with little suppression. A word on the IC50: it is the point on the concentration scale where inhibition reaches its midpoint.
